Experimental data as given in US11530200B2, “Compounds” (Inflazome Limited, priority 2018, dated 2022).
Counter-ions that a name gives are not always drawn.

What was measured:
[1] = biological target: NLRP3 (Homo sapiens (Human), UniProt Q96P20); test: THP-1 cells pyroptosis assay (LPS priming, nigericin, resazurin readout); format: cell-based; conditions: 1.0 μg/ml LPS, nigericin 5 μM, NLRP3 inhibitory activity
Method: THP-1 cells (ATCC #TIB-202) were grown in RPMI containing L-glutamine (Gibco #11835) supplemented with 1 mM sodium pyruvate (Sigma #S8636) and penicillin (100 units/ml)/streptomycin (0.1 mg/ml) (Sigma #P4333) in 10% Fetal Bovine Serum (FBS) (Sigma #F0804). The cells were routinely passaged and grown to confluency (10^6 cells/ml). On the day of the experiment, THP-1 cells were harvested and resuspended into RPMI medium (without FBS). The cells were then counted and viability (>90%) checked by Trypan blue (Sigma #T8154). Appropriate dilutions were made to give a concentration of 625,000 cells/ml. To this diluted cell solution was added LPS (Sigma #L4524) to give a 1 μg/ml Final Assay Concentration (FAC). 40 μl of the final preparation was aliquoted into each well of a 96-well plate. The plate thus prepared was used for compound screening. The following method step-by-step assay was followed for compound screening. • 1. Seed THP-1 cells (25,000 cells/well) containing 1.0 μg/ml LPS in 40 μl of RPMI medium (without FBS) in 96-well, black walled, clear bottom cell culture plates coated with poly-D-lysine (VWR #734-0317) • 2. Add […] compound (8 points half-log dilution, with […] top dose) or vehicle (DMSO 0.1% FAC) to the appropriate wells • 3. Incubate for 3 hrs at 37° C., 5% CO2 • 4. Add 5 μl nigericin (Sigma #N7143) (FAC 5 μM) to all wells • 5. Incubate for 1 hr at 37° C., 5% CO2 • 6. At the end of the incubation period, spin plates at 300×g for 3 mins and remove supernatant • 7. Then add 50 μl of resazurin (Sigma #R7017) (FAC 100 μM resazurin in RPMI medium without FBS) and incubate plates for a further 1-2 hrs at 37° C. and 5% CO2 • 8. Plates were read in an Envision reader at Ex 560 nm and Em 590 nm • 9. IC50 data is fitted to a non-linear regression equation (log inhibitor vs response-variable slope 4-parameters) The results of the pyroptosis assay are summarised in Table 1 below as THP IC50.

[2] = PK protocol, intravenous administration in rats; format: in vivo; conditions: rat, plasma, male Sprague Dawley rats, 1 mg/kg; for Vd: read-out: Vdss
Method: Pharmacokinetic parameters were determined in male Sprague Dawley rats (Vital River Laboratory Animal Technology Co Ltd, Beijing, China, 7-9 weeks old). Animals were group housed during the study and maintained under a 12 h light/dark cycle. For intravenous administration, compounds were formulated as a solution in DMSO:PBS [10:90] in 2 mL/kg dosing volume and administered via tail vein. Serial blood samples (about 200 μL) were taken from each animal at each of 8 time-points post dose (0.083, 0.25, 0.5, 1, 2, 4, 8 and 24 h). Samples were held on ice for no longer than 30 minutes before centrifugation (5,696 rpm (3,000 g) for 15 minutes) for plasma generation. Plasma was frozen on dry ice prior to bioanalysis. PK parameters were generated from LC-MS/MS data using Phoenix WinNonlin 6.3 software.

Chain of NLRP3 (Q96P20 whole entry): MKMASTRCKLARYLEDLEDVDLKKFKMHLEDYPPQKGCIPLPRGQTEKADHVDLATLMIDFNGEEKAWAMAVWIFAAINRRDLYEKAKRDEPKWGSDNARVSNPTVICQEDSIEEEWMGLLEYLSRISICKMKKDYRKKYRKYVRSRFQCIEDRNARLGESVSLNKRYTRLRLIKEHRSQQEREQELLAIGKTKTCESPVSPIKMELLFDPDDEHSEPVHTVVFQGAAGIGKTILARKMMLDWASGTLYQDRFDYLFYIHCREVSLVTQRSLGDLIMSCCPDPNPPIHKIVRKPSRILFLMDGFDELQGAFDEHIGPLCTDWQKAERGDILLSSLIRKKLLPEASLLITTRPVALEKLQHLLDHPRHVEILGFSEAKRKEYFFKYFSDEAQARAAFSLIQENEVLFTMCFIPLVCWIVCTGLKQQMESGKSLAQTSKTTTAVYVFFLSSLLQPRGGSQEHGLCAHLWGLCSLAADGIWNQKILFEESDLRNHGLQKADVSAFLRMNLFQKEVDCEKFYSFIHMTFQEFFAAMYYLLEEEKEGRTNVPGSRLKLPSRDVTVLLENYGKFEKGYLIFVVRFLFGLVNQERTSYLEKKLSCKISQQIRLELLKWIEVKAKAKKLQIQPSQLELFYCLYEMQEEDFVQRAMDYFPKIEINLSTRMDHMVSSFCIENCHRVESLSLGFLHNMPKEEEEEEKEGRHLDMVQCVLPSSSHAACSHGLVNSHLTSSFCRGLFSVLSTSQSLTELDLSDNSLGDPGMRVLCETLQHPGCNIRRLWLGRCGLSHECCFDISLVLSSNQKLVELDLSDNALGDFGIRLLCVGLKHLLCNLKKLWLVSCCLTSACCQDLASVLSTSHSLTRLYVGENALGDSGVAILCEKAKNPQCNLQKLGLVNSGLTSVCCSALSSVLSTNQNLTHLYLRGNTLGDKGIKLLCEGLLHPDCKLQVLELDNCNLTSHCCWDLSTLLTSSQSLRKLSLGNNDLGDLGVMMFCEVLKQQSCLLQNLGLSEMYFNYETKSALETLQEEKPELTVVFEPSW

IC50 [1] | AUC [2] | clearance [2] | half-life [2] | Vd [2] | Compound
1 to 5 µM | 1560 ng·h/mL | 10.7 mL/min/kg | 4.4 h | 0.95 L/kg | CC(C)c1cc(F)cc(-c2cccnc2)c1CC(=O)NS(=O)(=O)c1cnn(C2CC2)c1 [Example 11, N-((1-Cyclopropyl-1H-pyrazol-4-yl)sulfonyl)-2-(4-fluoro-2-isopropyl-6-(pyridin-3-yl)phenyl)acetamide]
≤ 1 µM | 1550 ng·h/mL | 15.4 mL/min/kg | 16.4 h | 6.52 L/kg | COc1cc(-c2cc(F)cc(C(C)C)c2CC(=O)NS(=O)(=O)c2cnn(C3CC3)c2)ccn1 [Example 18, N-((1-Cyclopropyl-1H-pyrazol-4-yl)sulfonyl)-2-(4-fluoro-2-isopropyl-6-(2-methoxypyridin-4-yl)phenyl)acetamide, potassium salt]
1 to 5 µM | 827 ng·h/mL | 20.2 mL/min/kg | 9.3 h | 6.15 L/kg | COc1cc(-c2cc(F)cc(C(C)C)c2CC(=O)NS(=O)(=O)c2ncn(C3CC3)n2)ccn1 [Example 21, N-((1-Cyclopropyl-1H-1,2,4-triazol-3-yl)sulfonyl)-2-(4-fluoro-2-isopropyl-6-(2-methoxypyridin-4-yl)phenyl)acetamide]
1 to 5 µM | 1270 ng·h/mL | 13.1 mL/min/kg | 2.6 h | 1.94 L/kg | CC(C)c1cc(F)cc(C(C)C)c1CC(=O)NS(=O)(=O)c1cnn(C2CC2)c1 [Example 24, N-((1-Cyclopropyl-1H-pyrazol-4-yl)sulfonyl)-2-(4-fluoro-2,6-diisopropylphenyl)acetamide]
